Like-named read-outs stand apart in the source and are kept apart here. Blank lines part the entries; values can stand above or below the compound they belong to.
Experiments:
Type in all cases: cell-based
[1] = tested on: HL60 tumor cells and the mouse mast cell line 6.5; experiment: AlamarBlue conversion cell proliferation assay, general statements without cell line; settings: metformin alone at 4 mM
mouse mast cell line 6.5 = experiment: AlamarBlue conversion cell proliferation assay, 6.5 cell line
Experimental: (§1) The in vitro anti-proliferative activity of compounds of formula (I), metformin and combinations thereof is tested in an AlamarBlue conversion cell proliferation assay (Promega) on HL60 tumor cells and the mouse mast cell line 6.5 (Colombi et al., Oncogene 2011, 30:1551-65). Cells are seeded into 96-well microtiter plates (seeding cell density is 7,000 cells per well in 150 uL Iscove's medium) and test compounds are added (compounds of formula (I) are added from a 10 mM stock solution in DMSO, metformin from a freshly prepared 1 M solution in culture medium). Plates are incubated for 3 days at 37°, 5% CO2 and proliferation is determined by AlamarBlue staining (0.1 vol % added to cultures and incubated for further 4-5 hours). The conversion of AlamarBlue is proportional to live cell number and is read with a fluorescence plate reader (Ex/Em 535/595 nm). Growth is normalized to the untreated controls.

HL60 tumor cells = experiment: AlamarBlue conversion cell proliferation assay, HL60 cell line
Experimental: as §1

Structure (SMILES): CN(C)C(=N)NC(=N)N [Metformin, 3-(diaminomethylidene)-1,1-dimethylguanidine]
anti-proliferative activity on its own [1]: do not show significant anti-proliferative activity

IC50 (HL60 tumor cells; combined with 4 mM metformin, 3 days incubation, read-out: concentration that inhibits the proliferation of cells by approximately 50% when combined with 4 mM metformin, HL60 cell line): 1.5 µM
Structure (SMILES): CCOC(=O)Oc1c(OC)cc(C(=O)O[C@@H]2C[C@@H]3CN4CCc5c([nH]c6cc(OC(=O)CNC(=O)c7ccccc7)ccc56)[C@H]4C[C@@H]3[C@H](C(=O)OC)[C@H]2OC)cc1OC [Example 18, methyl (1R,15S,17R,18R,19S,20S)-17-({4-[(ethoxycarbonyl)oxy]-3,5-dimethoxyphenyl}carbonyloxy)-18-methoxy-6-{[2-(phenylformamido)acetyl]oxy}-3,13-diazapentacyclo[11.8.0.0^2,10.0^4,9.0^15,20]henicosa-2(10),4,6,8-tetraene-19-carboxylate]
IC50 (mouse mast cell line 6.5; combined with 4 mM metformin, 3 days incubation, read-out: concentration that inhibits the proliferation of cells by approximately 50% when combined with 4 mM metformin, 6.5 cell line): 1 µM

Structure (SMILES): CCOC(=O)Oc1c(OC)cc(C(=O)O[C@@H]2C[C@@H]3CN4CCc5c([nH]c6cc(OC(=O)OC(C)(C)C)ccc56)[C@H]4C[C@@H]3[C@H](C(=O)OC)[C@H]2OC)cc1OC [Example 12, methyl (1R,15S,17R,18R,19S,20S)-6-{[(tert-butoxy)carbonyl]oxy}-17-({4-[(ethoxycarbonyl)oxy]-3,5-dimethoxyphenyl}carbonyloxy)-18-methoxy-3,13-diazapentacyclo[11.8.0.0^2,10.0^4,9.0^15,20]henicosa-2(10),4,6,8-tetraene-19-carboxylate]
IC50 (mouse mast cell line 6.5; read-out: concentration that inhibits the proliferation of cells by approximately 50% when combined with 4 mM metformin, 6.5 cell line, 3 days incubation): 1.5 µM
IC50 (HL60 tumor cells; read-out: concentration that inhibits the proliferation of cells by approximately 50% when combined with 4 mM metformin, HL60 cell line, 3 days incubation): 1.5 µM

From patent US9511064B2, “Combination therapy for the treatment of cancer and immunosuppression” (Basilea Pharmaceutica AG, priority 2012, dated 2016)
